Results: ChEMBL document CHEMBL1909046, “DrugMatrix in vitro pharmacology data”

Assays:
[1] = biological target: T1, 5-hydroxytryptamine receptor 2C (Homo sapiens, UniProt P28335); assay: DRUGMATRIX: Serotonin (5-Hydroxytryptamine) 5-HT2C radioligand binding (ligand: [3H] Mesulergine); assay type: cell membranes, CHO-K1, Membrane; settings: cho-k1; Not Active = under 50% inhibition at 10 µM
T1 sequence (P28335 whole entry): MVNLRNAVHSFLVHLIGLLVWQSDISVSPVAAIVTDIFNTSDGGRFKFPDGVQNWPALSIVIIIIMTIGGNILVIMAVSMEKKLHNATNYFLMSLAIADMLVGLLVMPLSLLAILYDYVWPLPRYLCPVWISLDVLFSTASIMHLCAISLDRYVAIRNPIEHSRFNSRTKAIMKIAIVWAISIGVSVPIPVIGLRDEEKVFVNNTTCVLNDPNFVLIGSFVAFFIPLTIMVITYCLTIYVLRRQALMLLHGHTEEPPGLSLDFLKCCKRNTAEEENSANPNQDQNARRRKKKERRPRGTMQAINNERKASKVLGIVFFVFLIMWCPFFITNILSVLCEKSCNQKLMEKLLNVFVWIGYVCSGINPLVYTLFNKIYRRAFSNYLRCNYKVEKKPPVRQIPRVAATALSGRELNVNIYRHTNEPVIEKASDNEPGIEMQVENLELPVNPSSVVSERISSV

[2] = biological target: Vascular endothelial growth factor receptor 1 (Homo sapiens, UniProt P17948); assay type: cell-based; settings: huvec; note: in other assays of this panel Not Active means under 50% inhibition at 10 µM
Chain of Vascular endothelial growth factor receptor 1 (P17948 whole entry): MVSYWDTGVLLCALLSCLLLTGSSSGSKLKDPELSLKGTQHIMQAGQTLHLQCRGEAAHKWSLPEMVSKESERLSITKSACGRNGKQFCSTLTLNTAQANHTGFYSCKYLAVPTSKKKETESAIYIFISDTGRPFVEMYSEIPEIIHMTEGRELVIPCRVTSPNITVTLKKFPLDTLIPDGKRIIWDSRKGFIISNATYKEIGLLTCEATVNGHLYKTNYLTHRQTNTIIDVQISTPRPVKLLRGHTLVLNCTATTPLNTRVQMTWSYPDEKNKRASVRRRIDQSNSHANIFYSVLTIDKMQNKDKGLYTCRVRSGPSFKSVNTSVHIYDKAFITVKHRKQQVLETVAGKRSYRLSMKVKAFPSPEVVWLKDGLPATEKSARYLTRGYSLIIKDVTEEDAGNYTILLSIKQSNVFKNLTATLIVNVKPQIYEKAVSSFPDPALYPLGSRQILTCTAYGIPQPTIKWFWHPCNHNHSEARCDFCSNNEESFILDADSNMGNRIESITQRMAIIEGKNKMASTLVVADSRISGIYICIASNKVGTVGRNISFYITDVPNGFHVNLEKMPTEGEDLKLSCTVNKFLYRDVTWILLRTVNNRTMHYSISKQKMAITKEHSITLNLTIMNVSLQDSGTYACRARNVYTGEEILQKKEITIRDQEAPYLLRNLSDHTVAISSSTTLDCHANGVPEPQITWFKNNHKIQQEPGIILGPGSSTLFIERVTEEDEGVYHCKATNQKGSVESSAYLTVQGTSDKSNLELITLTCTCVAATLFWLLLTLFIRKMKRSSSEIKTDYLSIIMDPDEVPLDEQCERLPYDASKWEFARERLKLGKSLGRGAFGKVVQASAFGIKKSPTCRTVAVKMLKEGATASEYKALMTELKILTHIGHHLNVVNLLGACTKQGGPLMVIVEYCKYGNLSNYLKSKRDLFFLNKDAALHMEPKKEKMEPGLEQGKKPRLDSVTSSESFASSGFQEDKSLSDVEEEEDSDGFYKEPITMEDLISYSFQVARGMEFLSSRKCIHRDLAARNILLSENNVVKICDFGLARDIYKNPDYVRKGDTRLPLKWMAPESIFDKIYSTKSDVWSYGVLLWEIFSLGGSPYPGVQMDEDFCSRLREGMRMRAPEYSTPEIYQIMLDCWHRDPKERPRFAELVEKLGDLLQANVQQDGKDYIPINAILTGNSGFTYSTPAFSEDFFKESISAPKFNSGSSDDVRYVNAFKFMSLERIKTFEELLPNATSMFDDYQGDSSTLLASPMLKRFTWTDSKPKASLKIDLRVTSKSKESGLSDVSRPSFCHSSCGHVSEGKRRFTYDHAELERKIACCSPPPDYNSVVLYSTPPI

D(3) dopamine receptor = D(3) dopamine receptor (Homo sapiens, UniProt P35462); assay: DRUGMATRIX: Dopamine D3 radioligand binding (ligand: [3H] Spiperone); assay type: cell membranes, CHO, Membrane; settings: cho
Chain of D(3) dopamine receptor (P35462 whole entry): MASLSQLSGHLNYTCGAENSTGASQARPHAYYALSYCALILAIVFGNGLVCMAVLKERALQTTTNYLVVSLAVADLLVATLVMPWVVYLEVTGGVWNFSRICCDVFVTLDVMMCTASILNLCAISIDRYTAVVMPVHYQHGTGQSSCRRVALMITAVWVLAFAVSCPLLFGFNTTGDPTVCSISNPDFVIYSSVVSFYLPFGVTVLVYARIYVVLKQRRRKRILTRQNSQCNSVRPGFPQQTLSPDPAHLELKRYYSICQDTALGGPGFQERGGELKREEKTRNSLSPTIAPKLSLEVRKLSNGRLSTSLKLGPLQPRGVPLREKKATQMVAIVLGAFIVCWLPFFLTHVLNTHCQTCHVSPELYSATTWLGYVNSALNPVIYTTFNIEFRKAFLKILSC

[3] = DRUGMATRIX: GABAA, Chloride Channel, TBOB radioligand binding (ligand: [3H] TBOB); assay type: cell membranes, Rattus norvegicus, Wistar, Cerebral cortex, Membrane; settings: Not Active = under 50% inhibition at 10 µM
[4] = biological target: T2, 3-hydroxy-3-methylglutaryl-coenzyme A reductase (Homo sapiens, UniProt P04035); design: species or system Escherichia coli;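 note: enzyme inhibition assay of HMG-CoA reductase using radiolabeled [14C]HMG-CoA as substrate; in other assays of this panel Not Active means under 50% inhibition at 10 µM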
T2 sequence (P04035 whole entry): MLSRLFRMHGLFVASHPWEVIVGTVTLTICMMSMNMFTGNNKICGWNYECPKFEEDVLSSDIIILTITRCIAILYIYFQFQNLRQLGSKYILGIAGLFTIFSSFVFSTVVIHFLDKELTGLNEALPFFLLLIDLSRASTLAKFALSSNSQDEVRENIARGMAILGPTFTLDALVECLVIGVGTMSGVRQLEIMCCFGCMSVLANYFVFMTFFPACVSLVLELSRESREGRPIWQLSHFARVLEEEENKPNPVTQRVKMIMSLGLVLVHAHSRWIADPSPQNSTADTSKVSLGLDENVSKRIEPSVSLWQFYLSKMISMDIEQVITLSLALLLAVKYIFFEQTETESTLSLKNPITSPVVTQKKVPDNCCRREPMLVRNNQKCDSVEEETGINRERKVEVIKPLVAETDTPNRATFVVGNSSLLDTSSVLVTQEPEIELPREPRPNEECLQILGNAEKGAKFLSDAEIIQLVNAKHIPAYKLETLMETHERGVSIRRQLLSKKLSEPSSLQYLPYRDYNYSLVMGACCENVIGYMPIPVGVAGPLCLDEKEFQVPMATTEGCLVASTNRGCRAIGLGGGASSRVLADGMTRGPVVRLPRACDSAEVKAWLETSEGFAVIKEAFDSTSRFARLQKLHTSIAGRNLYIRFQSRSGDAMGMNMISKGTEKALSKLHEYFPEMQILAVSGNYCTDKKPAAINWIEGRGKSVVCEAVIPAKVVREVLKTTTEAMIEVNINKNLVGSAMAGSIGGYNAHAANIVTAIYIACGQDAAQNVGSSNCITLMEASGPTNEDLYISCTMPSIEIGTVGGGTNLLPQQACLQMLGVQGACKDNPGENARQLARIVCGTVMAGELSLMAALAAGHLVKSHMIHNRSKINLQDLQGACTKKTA

[5] = DRUGMATRIX: Interleukin IL-1 radioligand binding (ligand: [125I] interleukin 1beta); assay type: cell membranes, Membrane; settings: nih3t3; Not Active = under 50% inhibition at 10 µM
Melanocortin receptor 5 = Melanocortin receptor 5 (Homo sapiens, UniProt P33032); assay type: cell membranes, HEK293, Membrane; settings: hek293; note: in other assays of this panel Not Active means under 50% inhibition at 10 µM
Chain of Melanocortin receptor 5 (P33032 whole entry): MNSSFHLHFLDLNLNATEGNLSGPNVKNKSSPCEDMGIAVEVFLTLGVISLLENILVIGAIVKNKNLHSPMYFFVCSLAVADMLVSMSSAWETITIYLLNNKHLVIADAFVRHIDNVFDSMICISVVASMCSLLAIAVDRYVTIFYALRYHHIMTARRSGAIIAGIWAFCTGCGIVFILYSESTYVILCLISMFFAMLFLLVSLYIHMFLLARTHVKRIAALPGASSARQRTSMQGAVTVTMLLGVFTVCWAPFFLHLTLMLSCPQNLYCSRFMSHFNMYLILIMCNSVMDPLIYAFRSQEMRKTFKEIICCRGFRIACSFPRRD

[6] = biological target: T3, Neuropeptide Y receptor type 2 (Homo sapiens, UniProt P49146); assay type: cell membranes, Membrane; settings: kan-ts; note: in other assays of this panel Not Active means under 50% inhibition at 10 µM
T3 sequence (P49146 whole entry): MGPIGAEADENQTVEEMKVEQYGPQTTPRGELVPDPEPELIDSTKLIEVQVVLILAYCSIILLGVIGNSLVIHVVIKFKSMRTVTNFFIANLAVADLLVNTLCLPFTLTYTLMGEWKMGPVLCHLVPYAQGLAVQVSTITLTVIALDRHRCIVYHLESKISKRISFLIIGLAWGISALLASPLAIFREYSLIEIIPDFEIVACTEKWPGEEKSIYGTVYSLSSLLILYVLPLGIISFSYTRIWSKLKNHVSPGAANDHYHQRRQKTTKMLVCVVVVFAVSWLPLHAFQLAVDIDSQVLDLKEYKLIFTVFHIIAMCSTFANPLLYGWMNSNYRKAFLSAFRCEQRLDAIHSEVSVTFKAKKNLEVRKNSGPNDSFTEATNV

[7] = biological target: Delta-type opioid receptor (Homo sapiens, UniProt P41143); assay type: cell membranes, HEK293, Membrane; settings: hek293; note: in other assays of this panel Not Active means under 50% inhibition at 10 µM
Chain of Delta-type opioid receptor (P41143 whole entry): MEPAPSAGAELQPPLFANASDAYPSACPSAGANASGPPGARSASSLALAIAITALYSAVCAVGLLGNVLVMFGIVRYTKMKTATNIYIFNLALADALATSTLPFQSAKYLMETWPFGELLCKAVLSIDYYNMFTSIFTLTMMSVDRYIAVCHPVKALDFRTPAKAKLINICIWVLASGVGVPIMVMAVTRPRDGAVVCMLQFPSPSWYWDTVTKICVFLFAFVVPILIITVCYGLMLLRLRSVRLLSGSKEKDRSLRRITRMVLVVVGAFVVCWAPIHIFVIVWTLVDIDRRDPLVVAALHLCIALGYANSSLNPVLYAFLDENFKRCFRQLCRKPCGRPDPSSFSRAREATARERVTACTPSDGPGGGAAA

Acetylcholinesterase = Acetylcholinesterase (Homo sapiens, UniProt P22303); assay: DRUGMATRIX: Acetylcholinesterase enzyme inhibition (substrate: acetylthiocholine); assay type: cell-based, HEK293; settings: hek293; Not Active = under 50% inhibition at 10 µM
Chain of Acetylcholinesterase (P22303 whole entry): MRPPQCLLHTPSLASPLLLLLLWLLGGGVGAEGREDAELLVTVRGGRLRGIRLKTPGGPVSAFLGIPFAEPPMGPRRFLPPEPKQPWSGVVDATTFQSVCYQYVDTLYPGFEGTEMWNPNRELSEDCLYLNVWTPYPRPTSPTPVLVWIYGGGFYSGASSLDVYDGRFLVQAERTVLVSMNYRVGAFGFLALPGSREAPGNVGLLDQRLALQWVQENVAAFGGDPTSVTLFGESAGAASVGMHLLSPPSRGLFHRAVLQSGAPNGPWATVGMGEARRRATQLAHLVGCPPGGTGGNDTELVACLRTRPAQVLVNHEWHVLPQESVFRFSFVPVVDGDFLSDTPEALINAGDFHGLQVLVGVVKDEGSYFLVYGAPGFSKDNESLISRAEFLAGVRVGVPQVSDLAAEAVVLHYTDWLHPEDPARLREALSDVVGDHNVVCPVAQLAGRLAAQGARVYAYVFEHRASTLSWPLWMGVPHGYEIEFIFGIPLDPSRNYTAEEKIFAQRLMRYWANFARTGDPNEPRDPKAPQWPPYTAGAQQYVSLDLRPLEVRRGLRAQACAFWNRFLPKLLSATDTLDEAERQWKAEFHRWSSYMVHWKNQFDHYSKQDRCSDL

Adenosine receptor A2a = Adenosine receptor A2a (Homo sapiens, UniProt P29274); assay: DRUGMATRIX: Adenosine A2A radioligand binding (ligand: […]); assay type: cell membranes, HEK293, Membrane; settings: hek293; Not Active = under 50% inhibition at 10 µM
Chain of Adenosine receptor A2a (P29274 whole entry): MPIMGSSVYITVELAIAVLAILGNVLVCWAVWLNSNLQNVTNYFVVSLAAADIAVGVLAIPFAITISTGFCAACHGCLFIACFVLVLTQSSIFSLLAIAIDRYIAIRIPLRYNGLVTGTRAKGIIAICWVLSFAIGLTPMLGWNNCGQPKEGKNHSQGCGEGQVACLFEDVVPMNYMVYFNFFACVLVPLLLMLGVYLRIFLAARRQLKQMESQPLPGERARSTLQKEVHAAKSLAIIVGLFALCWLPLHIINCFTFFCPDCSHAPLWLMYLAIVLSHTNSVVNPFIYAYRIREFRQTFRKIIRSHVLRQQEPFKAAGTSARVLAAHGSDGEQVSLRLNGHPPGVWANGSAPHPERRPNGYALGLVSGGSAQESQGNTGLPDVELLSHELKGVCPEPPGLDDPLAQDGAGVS

Cytochrome P450 2A6 = biological target: T4, Cytochrome P450 2A6 (Homo sapiens, UniProt P11509); settings: bti-tn-5b1-4; note: in other assays of this panel Not Active means under 50% inhibition at 10 µM
T4 sequence (P11509 whole entry): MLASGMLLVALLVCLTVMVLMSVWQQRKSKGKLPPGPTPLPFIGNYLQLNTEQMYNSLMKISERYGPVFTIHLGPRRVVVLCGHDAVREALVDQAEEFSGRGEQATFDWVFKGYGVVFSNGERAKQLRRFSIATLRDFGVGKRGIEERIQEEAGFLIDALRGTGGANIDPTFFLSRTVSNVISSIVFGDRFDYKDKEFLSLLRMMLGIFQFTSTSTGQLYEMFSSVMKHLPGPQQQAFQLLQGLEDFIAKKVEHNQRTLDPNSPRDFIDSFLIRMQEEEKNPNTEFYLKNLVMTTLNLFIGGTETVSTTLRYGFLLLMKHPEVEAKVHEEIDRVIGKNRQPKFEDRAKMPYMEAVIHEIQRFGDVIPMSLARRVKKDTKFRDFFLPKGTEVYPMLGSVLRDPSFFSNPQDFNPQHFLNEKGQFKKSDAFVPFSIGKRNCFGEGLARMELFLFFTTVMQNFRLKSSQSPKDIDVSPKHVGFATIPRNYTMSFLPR

CC1=C(/C=C/C(C)=C/C=C/C(C)=C\C(=O)O)C(C)(C)CCC1 [ISOTRETINOIN]
Not Active: IC50 [1] | IC50 [2] | IC50 (D(3) dopamine receptor) | IC50 [3] | Ki [3] | IC50 [4] | IC50 [5] | Ki [5] | IC50 (Melanocortin receptor 5) | IC50 [6] | IC50 [7] | IC50 (Acetylcholinesterase) | IC50 (Adenosine receptor A2a) | IC50 (Cytochrome P450 2A6) | Ki (Cytochrome P450 2A6)

CO[C@@H]1[C@@H](O[C@@H]2O[C@H](C)[C@@H](O[C@H]3C[C@@](C)(O)[C@@H](OC(=O)CC(C)C)[C@H](C)O3)[C@H](N(C)C)[C@H]2O)[C@@H](CC=O)C[C@@H](C)[C@@H](O)/C=C/C=C/C[C@@H](C)OC(=O)C[C@H]1O [KITASAMYCIN]
Not Active: IC50 [1] | IC50 [2] | IC50 (D(3) dopamine receptor) | IC50 [3] | Ki [3] | IC50 [4] | IC50 [5] | Ki [5] | IC50 (Melanocortin receptor 5) | IC50 [6] | IC50 [7] | IC50 (Acetylcholinesterase) | IC50 (Adenosine receptor A2a) | IC50 (Cytochrome P450 2A6) | Ki (Cytochrome P450 2A6)

C[C@]12Cc3c[nH]nc3C[C@@H]1CC[C@@H]1[C@@H]2CC[C@@]2(C)[C@H]1CC[C@]2(C)O [STANOZOLOL]
Not Active: IC50 [1] | IC50 [2] | IC50 (D(3) dopamine receptor) | IC50 [3] | Ki [3] | IC50 [4] | IC50 [5] | Ki [5] | IC50 (Melanocortin receptor 5) | IC50 [6] | IC50 [7] | IC50 (Acetylcholinesterase) | IC50 (Adenosine receptor A2a) | IC50 (Cytochrome P450 2A6) | Ki (Cytochrome P450 2A6)

CCOC(=O)[C@H](CCc1ccccc1)N[C@@H](C)C(=O)N1[C@H](C(=O)O)C[C@@H]2CCC[C@@H]21
Not Active: IC50 [1] | IC50 [2] | IC50 (D(3) dopamine receptor) | IC50 [3] | Ki [3] | IC50 [4] | IC50 [5] | Ki [5] | IC50 (Melanocortin receptor 5) | IC50 [6] | IC50 [7] | IC50 (Acetylcholinesterase) | IC50 (Adenosine receptor A2a) | IC50 (Cytochrome P450 2A6) | Ki (Cytochrome P450 2A6)

Clc1ccc(C(c2ccccc2Cl)C(Cl)Cl)cc1 (stereo not given) [MITOTANE]
Not Active: IC50 [1] | IC50 [2] | IC50 (D(3) dopamine receptor) | IC50 [3] | Ki [3] | IC50 [4] | IC50 [5] | Ki [5] | IC50 (Melanocortin receptor 5) | IC50 [6] | IC50 [7] | IC50 (Acetylcholinesterase) | IC50 (Adenosine receptor A2a) | IC50 (Cytochrome P450 2A6) | Ki (Cytochrome P450 2A6)

CN(C)[C@@H]1C(O)=C(C(N)=O)C(=O)[C@@]2(O)C(O)=C3C(=O)c4c(O)cccc4[C@@](C)(O)[C@H]3C[C@@H]12 [TETRACYCLINE]
Not Active: IC50 [1] | IC50 [2] | IC50 (D(3) dopamine receptor) | IC50 [3] | Ki [3] | IC50 [4] | IC50 [5] | Ki [5] | IC50 (Melanocortin receptor 5) | IC50 [6] | IC50 [7] | IC50 (Acetylcholinesterase) | IC50 (Adenosine receptor A2a) | IC50 (Cytochrome P450 2A6) | Ki (Cytochrome P450 2A6)

CC(C)(C)NCC(O)c1ccc(O)c(CO)c1 (stereo not given) [ALBUTEROL]
Not Active: IC50 [1] | IC50 [2] | IC50 (D(3) dopamine receptor) | IC50 [3] | Ki [3] | IC50 [4] | IC50 [5] | Ki [5] | IC50 (Melanocortin receptor 5) | IC50 [6] | IC50 [7] | IC50 (Acetylcholinesterase) | IC50 (Adenosine receptor A2a) | IC50 (Cytochrome P450 2A6) | Ki (Cytochrome P450 2A6)

CC(CCc1ccccc1)NCC(O)c1ccc(O)c(C(N)=O)c1 (stereo not given) [LABETALOL]
Not Active: IC50 [1] | IC50 [2] | IC50 (D(3) dopamine receptor) | IC50 [3] | Ki [3] | IC50 [4] | IC50 [5] | Ki [5] | IC50 (Melanocortin receptor 5) | IC50 [6] | IC50 [7] | IC50 (Acetylcholinesterase) | IC50 (Adenosine receptor A2a) | IC50 (Cytochrome P450 2A6) | Ki (Cytochrome P450 2A6)

CN(N=O)C(=O)N[C@@H](C=O)[C@@H](O)[C@H](O)[C@H](O)CO [STREPTOZOCIN]
Not Active: IC50 [1] | IC50 [2] | IC50 (D(3) dopamine receptor) | IC50 [3] | Ki [3] | IC50 [4] | IC50 [5] | Ki [5] | IC50 (Melanocortin receptor 5) | IC50 [6] | IC50 [7] | IC50 (Acetylcholinesterase) | IC50 (Adenosine receptor A2a) | IC50 (Cytochrome P450 2A6) | Ki (Cytochrome P450 2A6)
